{
  "source": "patent US9272036B2",
  "about": "“Carbon dioxide, saline and additional active nasal delivery methods and treatments” (CLOVER HILL HEALTHCARE, INC., priority 2012, dated 2016)",
  "origin": "cited, not measured here",
  "tested_on": "subjects with SAR",
  "data": [
    {"smiles": "O=C=O", "note": "[CO(2), carbon dioxide]", "values": [
      {"measurement": "histamine levels in ipsilateral nasal secretions", "setting": "after pretreatment with CO(2), increased significantly with sham treatment", "value": "did not increase"},
      {"measurement": "sensation reported by subjects during exposure", "setting": "during 20-second intranasal exposure", "value": "transient burning sensation"},
      {"measurement": "ipsilateral secretion weights", "setting": "nasal allergen challenge 30 minutes after 20-second CO(2) exposure, compared with no treatment", "value": "numerically reduced"},
      {"measurement": "bilateral runny nose symptoms", "setting": "nasal allergen challenge 30 minutes after 20-second CO(2) exposure, compared with no treatment, p=0.01", "value": "significant reduction"},
      {"measurement": "contralateral secretion weights (reflex secretory response, primary outcome)", "setting": "nasal allergen challenge 30 minutes after 20-second CO(2) exposure, compared with no treatment, p=0.04", "value": "significant reduction"},
      {"measurement": "sneezes", "setting": "nasal allergen challenge (grass or ragweed) 30 minutes after 20-second CO(2) exposure, compared with no treatment, p=0.05", "value": "significant reduction"},
      {"measurement": "acute response to allergen challenge (overall)", "setting": "treatment with nasal CO(2)", "value": "partial reduction"}
    ]}
  ]
}
